Columns and labels:
[1] = in vivo; cited from earlier work
[2] = Blood plasma levels (LC-MS/MS) after DMT/harmine administration
Description: Blood samples were collected from the left antecubital vein at −30 (baseline), −15, 0, 15, 30, 45, 60, 90, 120, 180, 240, 300 and 360 min after the first DMT administration for analysis of blood plasma levels of harmine, DMT and the two major DMT metabolites 3-indole acetic acid (3-IAA) and N-methyl-tryptamine (NMT). […] Blood samples were immediately centrifuged for 10 min at 2000 RCF. Then, plasma was transferred to Eppendorf tubes, shock-frozen in liquid nitrogen (∼-196°C), and stored at −80°C until assayed.
For the sample preparation 200 µL of plasma were spiked with 50 µL internal standard (IS) mixture (40 ng/mL DMT-d6 and harmine-d3) and 50 µL methanol (MeOH). Proteins were precipitated by adding 400 µL of acetonitrile (ACN). The samples were shaken for 10 min and centrifuged for 5 min at 10,000 rpm. 350 μL of the supernatant was transferred into an auto-sampler vial, evaporated to dryness under a gentle stream of nitrogen at room temperature and reconstituted in 100 µL eluent-mixture (98:2, v/v). External calibrator and quality control (QC) samples were prepared accordingly, replacing the MeOH with a calibrator or QC solution mixtures. Calibrator and QC samples containing 3-IAA were prepared separately, replacing plasma with water. The calibration ranges were 0.5–500 ng/mL for DMT and DMT-N-oxide, 2.5–120 ng/mL for harmine, 1–80 ng/mL for harmol, 0.015–10 ng/mL for NMT and 35–3,000 ng/mL for 3-IAA.
Samples were analyzed on an ultra-high performance liquid chromatography (UHPLC) system (Thermo Fisher, San Jose, CA) coupled to a linear ion trap quadrupole mass spectrometer 5,500 (Sciex, Darmstadt, Germany). The mobile phases consisted of a mixture of water (eluent A) and ACN (eluent B), both containing 0.1% formic acid (v/v). Using a Kinetex C18 column 50 × 2.1 mm, 2.6 µm (Phenomenex, Aschaffenburg, Germany), the flow rate was set to 0.5 mL/min with the following gradient: starting conditions 98% eluent A, decreasing to 70% within 4 min, followed by a quick decrease to 5% within 1 min, holding for 0.5 min and returning to starting conditions for 1.5 min, resulting in a total runtime of 7 min. The mass spectrometer was operated in positive electrospray ionization mode with scheduled multiple reaction monitoring. The following transitions of precursor ions to product ions were selected as quantifier ions: DMT m/z 189→115, DMT-N-oxide m/z 205→117, harmine m/z 213→169, harmol m/z 199→131, NMT m/z 175→144 and 3-IAA m/z 176→103.

[3] = parameters: method as in Turner and Merlis, 1959; conditions: dose range 5–20 mg; ref Turner and Merlis, 1959; cited from earlier work
[4] = ref Vogt et al., 2023; cited from earlier work
[5] = day 1, 250 mg oral harmine + 30 mg oral DMT
[6] = day 2, 250 mg oral harmine + 50 mg oral DMT
[7] = day 3, 150 mg buccal harmine + max 50 mg intranasal DMT
[8] = day 4, 200 mg buccal harmine + max 90 mg intranasal DMT

SMILES | Duration of action [1] [h] | Peak of the mean plasma concentrations [2, 5] [ng/mL] | Peak of the mean plasma concentrations [2, 6] [ng/mL] | Peak of the mean plasma concentrations [2, 7] [ng/mL] | Peak of the mean plasma concentrations [2, 8] [ng/mL] | other results
CN(C)CCc1c[nH]c2cccc(OP(=O)(O)O)c12 [psilocybin] | 4 to 6 | – | – | – | – | –
COc1ccc2c(c1)[nH]c1c(C)nccc12 [harmine] | – | 125.5 ± 111.2 | 104.8 ± 100.5 | 93.9 ± 33.5 | 132.4 ± 111.6 | Tmax ([2]; human, plasma, po): 1 to 4.5 h
CN(C)CCc1c[nH]c2ccccc12 [DMT freebase, N,N-dimethyltryptamine] | – | – | – | – | – | Effect of intranasal administration [3]: ineffective
CN(C)CCc1c[nH]c2ccccc12 [DMT, N,N-dimethyltryptamine] | – | 27.9 ± 15.5 | 23.6 ± 11.9 | 23.9 ± 5.0 | 33.1 ± 9.3 | Plasma elimination half-life [4]: 5 to 10 min
CCN(CC)C(=O)[C@@H]1C=C2c3cccc4[nH]cc(c34)C[C@H]2N(C)C1 [LSD] | 10 to 12 | – | – | – | – | –
